Measurements published in patent publication EP0421819A1, “Therapeutic nucleosides” (THE WELLCOME FOUNDATION LIMITED, priority 1989, dated 1991).
“Also recorded” adds a separate entry of the source.

Legend:
Format in all cases: cell-based
Hepatitis B Virus (HBV) = experiment: Antiviral activity against HBV in the HBV producer cell line HepG2 2.2.15 (Dane particle DNA and intracellular replicative intermediates); conditions: for anti-HBV activity: general statement in the description, no concentration given
Method: The human HBV producer cell line of HepG2, 2.2 15, described and characterised by Sells et al., PNAS 84:1005, 1987 and J. Virol. […] This cell line was utilised in vitro to identify compounds with anti-HBV activity.
To test compounds for antiviral activity, monolayer cultures were treated with compound, 50-200 µM, for ten days. Supernatant media containing extracellular virion DNA (Dane particles), were harvested on days three, six and ten, treated with proteinase K(1 mg/mL) and sodium dodecyl sulfate (1%), and incubated at 50 °C for one hour. DNA was extracted with equal volumes of phenol followed by chloroform and then precipitated by ammonium acetate and propanol. The DNA precipitate was dissolved and collected on nitrocellulose using the procedure of Schieicher and Schuell (S & S, 10 Optical Ave., Keene, NH 03431, Publication #700, 1987), and treated as described by Southern, J. Mol. Biol. 98:503, 1975. Cells were harvested, and the intracellular DNA was obtained after cell lysis with guanidine isothiocyanate. The intracellular DNA was handled in the same manner as the extracellular DNA. After precipitation by ammonium acetate and propanol, the intracellular DNA precipitate was dissolved, cut by restriction endonuclease, Hind III, applied to agarose gel and then treated as described by Southern to determine the quantity of replicative intermediate forms. The antiviral effect of the drug was determined by measuring at least a 100-fold reduction of the amount of Dane particles extruded into the culture and a similar decrease in the intracellular replicative intermediates.

HIV-2 = experiment: Anti-HIV activity by the method of Averett (J.Virol.Methods 23, 263-276); conditions: against HIV-2; n=6; read-out: average IC₅₀
Method: (§1) Anti-HIV activity was determined by the method of Averett, D.R., J.Virol.Methods, 23 263-276 (1989).

HIV-1 = experiment: as above; conditions: against HIV-1; n=7; read-out: average IC₅₀
Method: as §1

HIV = experiment: Activity against HIV infections (general statement, no method given at that place); conditions: general statement in the description

| Structure (SMILES) | anti-HBV activity (Hepatitis B Virus (HBV)) | inhibition of HBV (Hepatitis B Virus (HBV); at 100 µM, monolayer cultures treated for ten days) | anti-HBV activity (Hepatitis B Virus (HBV); listed as Compound 41) | IC50 (HIV-2) | IC50 (HIV-1) | activity against HIV infections (HIV) |
| --- | --- | --- | --- | --- | --- | --- |
| Nc1nc(NC2CC2)c2ncn([C@H]3CC[C@@H](CO)O3)c2n1 [Compound 34, 2-Amino-6-cyclopropylaminopurine-9-β-D-2,′3′-dideoxyribofuranoside] | surprisingly high |  |  |  |  |  |
| CCCOc1nc(N)nc2c1ncn2[C@H]1CC[C@@H](CO)O1 [Compound 9, 2-Amino-6-n-propoxypurine-9-β-D-2′,3′-dideoxyribofuranoside] | surprisingly high |  |  |  |  |  |
| Nc1nc(NCC2CC2)c2ncn([C@H]3CC[C@@H](CO)O3)c2n1 [Example 42, 2-Amino-6-(cyclopropylmethylamino)purine-9-β-D-2′,3′-dideoxy ribofuranoside] |  | strong inhibition | surprisingly high; also recorded: exceptionally potent activity | 13.3 µM | 17.7 µM | exceptionally potent activity |
